Assays:
Format in all cases: biochemical
c-Src kinase = c-Src kinase (Homo sapiens, UniProt P12931); assay: c-Src kinase inhibition; conditions: Table 4; read-out: s-Scr, activity (IC50 for kinase inhibition)
From the text: An appropriate assay is described in Andrejauskas-Buchdunger et al., Cancer Res. 52, 5353-8 (1992).

[1] = target: T1, human insulin receptor (Ins-R) (Homo sapiens, UniProt P06213); assay: Ins-R tyrosine kinase assay, GST-Ins-R; conditions: Table 4; read-out: Ins-R, activity (IC50 for kinase inhibition)
T1 construct: encoding the amino acid region 919-1343 of the intra-cytoplasmic kinase domain of the human insulin receptor; made in house; host or cells: baculovirus (Bac-to-Bac)
T1 sequence (P06213 958-1382 limits assumed): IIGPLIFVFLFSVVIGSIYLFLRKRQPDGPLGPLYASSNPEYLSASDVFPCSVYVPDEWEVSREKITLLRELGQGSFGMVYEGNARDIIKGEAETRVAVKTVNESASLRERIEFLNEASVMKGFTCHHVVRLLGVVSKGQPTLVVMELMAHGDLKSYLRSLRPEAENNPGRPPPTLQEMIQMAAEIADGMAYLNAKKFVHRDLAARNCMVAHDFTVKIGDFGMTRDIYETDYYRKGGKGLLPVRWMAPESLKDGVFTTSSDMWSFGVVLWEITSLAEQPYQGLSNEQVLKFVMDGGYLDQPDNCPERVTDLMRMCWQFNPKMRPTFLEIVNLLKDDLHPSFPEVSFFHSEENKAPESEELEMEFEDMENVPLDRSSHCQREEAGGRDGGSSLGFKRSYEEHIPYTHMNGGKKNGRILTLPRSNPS
From the text: The inhibition of IGF-1R and Ins-R can be determined as follows: The baculovirus donor vector pfbgx3IGFIRcd is used to generate a recombinant baculovirus that expresses the amino acid region 950-1337 of the mature peptide cytoplasmic domain of the human IGF-IR. To generate the cDNA fragment encoding the amino acid region 919-1343 of the intra-cytoplasmic kinase domain of the human insulin receptor, pC5hInsR is used. The fragments of the human IGF-IR and Ins-R are cloned, expressed and small-scale purified as a factor Xa-cleavable glutathione-S-transferase (GST)-fusion protein using the Bac-to-Bac™ system (GIBCO BRL) of recombinant baculovirus generation. Virus containing media is collected from the transfected cell culture and used for infection to increase its titer. Virus containing media obtained after two rounds of infection is used for large-scale protein expression. Cell extracts are prepared and loaded onto a glutathione-Sepharose (Pharmacia) column. After washing, the GST-tagged proteins are then eluted with a glutathione-containing buffer. Purified protein is stored at −70° C. in elution buffer. Tyrosine protein kinase assays with purified GST-IGF-1R and GST-ins-R are carried in a final volume of 30 μl containing 20 mM Tris-HCl, pH 7.6, 10 mM MgCl2, 0.01 mM Na3VO4, 1% DMSO, 1 mM DTT, 3 μg/ml poly(Glu,Tyr) 4:1 and 10 μM ATP (γ-[^33P]-ATP 0.1 μCi). The assay is performed in 96-well plates at ambient temperature for 20 min and terminated by addition of 25 μl 0.05 M EDTA pH 7.0. An aliquot of 40 μl is spotted with a multichannel dispenser on Whatman P81 membranes mounted in a Millipore Microtiter filter manifold connected to a low vacuum source. After elimination of liquid, the membrane is transferred to a sequence of 4 washing baths containing 0.5% H3PO4 and one with EtOH (shaking incubation for 10 min each), dried, mounted onto a Hewlett Packard TopCount manifold added 10 μl Microscint® and counted. Compounds of formula (I) show up to 90% inhibition of Ins-R at 10,000 nM, preferably between 60-90% inhibition. The inhibition of Tek can be determined as follows: The procedure of the expression, purification and assay these kinases has been described. Fabbro et al., Pharmacol. Ther. 82(2-3) 293-301 (1999). In brief, the glutathione S-transferase (GST) gene from the pAcG1 vector (Pharmingen) is excised with EcoRV and EcoRI and inserted into the cloning site of the Fast-Bac baculoviral vector (GIBCO) creating a 5530 bp vector with N-terminal cloning sites derived from the pAcG1 fusion vector (FBG0). The C-terminal cloning site may be any cloning site (from the Fast-Bac vector) downstream of the N-terminal cloning site used. N-terminally GST-fused (pAcG1, Pharmingen) KDR, Flt-1, Flk-1, Tek and PDGFR-β kinase domains are obtained from ProQinase, Freiburg, Germany. Tek is recloned into the FBG1 vector by EcoRI excision and ligation into EcoRI digested FBG1 (FBG1-Tek). The coding sequences for the whole cytoplasmic domain of c-Kit (aa 544-976) and c-Fms (aa 538-972) are amplified by PCR from human uterus and from human bone marrow cDNA libraries (Clontech), respectively. The amplified DNA fragments are fused to GST by cloning them into FBG1 as BamHI-EcoRI insertions, to yield FBG1-c-Kit and FBG1-c-Fms. Tek is recloned into the FBG0 transfer vector by EcoRI excision and ligation into EcoRI digested FBG0 (FBG-Tie2/Tek). FGFR-1 and c-met kinase domains are obtained by PCR from human A431 cells. N-terminal primers contain an overhanging EcoRI site, while C-terminal primers contain a XhoI site to aid cloning into the transfer vectors. After digestion of both the PCR fragments and FBG0 the cleavage products are gel-purified and ligated together to form the kinase constructs (FBG-Met, FBG-FGFR-1).

c-Abl kinase = target: T2, c-Abl kinase (Homo sapiens, UniProt P00519); assay: c-Abl protein-tyrosine kinase filter binding assay; conditions: Table 4; read-out: c-abl, activity (IC50 for kinase inhibition)
T2 construct: The His-tagged kinase domain of c-Abl is cloned and expressed in the baculovirus/Sf9 system; His; made in house; host or cells: Sf9 (baculovirus)
T2 sequence (P00519 242-493 limits assumed): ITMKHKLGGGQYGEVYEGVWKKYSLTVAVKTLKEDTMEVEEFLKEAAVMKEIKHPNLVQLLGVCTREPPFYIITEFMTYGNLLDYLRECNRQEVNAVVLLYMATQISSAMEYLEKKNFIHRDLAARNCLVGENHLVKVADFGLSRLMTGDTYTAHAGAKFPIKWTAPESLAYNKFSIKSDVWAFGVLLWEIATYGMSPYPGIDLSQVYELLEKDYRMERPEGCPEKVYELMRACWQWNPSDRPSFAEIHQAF
Procedure: The His-tagged kinase domain of c-Abl is cloned and expressed in the baculovirus/Sf9 system as described by Bhat et al. in J. Biol. Chem. 1997; 272:16170-16175. A protein of 37 kD (c-Abl kinase) is purified by a two-step procedure over a Cobalt metal chelate column followed by an anion exchange column with a yield of 1-2 mg/L of Sf9 cells (Bhat et al., reference cited). The purity of the c-Abl kinase is >90% as judged by SDS-PAGE after Coomassie blue staining. The assay contains (total volume of 30 μL): c-Abl kinase (50 ng), 20 mM Tris.HCl, pH 7.5, 10 mM MgCl2, 10 μM Na3VO4, 1 mM DTT and 0.06 μCi/assay [γ^33 P]-ATP (5 μM ATP) using 30 μg/mL poly-Ala,Glu,Lys,Tyr-6:2:5:1 (Poly-AEKY, Sigma P1152) in the presence of 1% DMSO. Reactions are terminated by adding 10 μL of 250 mM EDTA and 30 μL of the reaction mixture is transferred onto Immobilon-PVDF membrane (Millipore, Bedford, Mass., USA) previously soaked for 5 min with methanol, rinsed with water, then soaked for 5 min with 0.5% H3PO4 and mounted on vacuum manifold with disconnected vacuum source. After spotting all samples, vacuum is connected and each well rinsed with 200 μL 0.5% H3PO4. Membranes are removed and washed on a shaker with 0.5% H3PO4 (4 times) and once with ethanol. Membranes are counted after drying at ambient temperature, mounting in Packard TopCount 96-well frame, and addition of 10 μL/well of Microscint™ (Packard).

human Flt-3 = target: T3, human Flt-3 (Homo sapiens, UniProt P36888); assay: Flt3 kinase inhibition, GST-Flt-3, 33P incorporation into poly(Glu,Tyr); conditions: Table 4; read-out: Flt-3, activity (IC50 for kinase inhibition)
T3 construct: expressing the amino acid region amino acids 563-993 of the cytoplasmic kinase domain of human Flt-3; made in house; host or cells: Sf9 (baculovirus)
T3 sequence (P36888 563-993): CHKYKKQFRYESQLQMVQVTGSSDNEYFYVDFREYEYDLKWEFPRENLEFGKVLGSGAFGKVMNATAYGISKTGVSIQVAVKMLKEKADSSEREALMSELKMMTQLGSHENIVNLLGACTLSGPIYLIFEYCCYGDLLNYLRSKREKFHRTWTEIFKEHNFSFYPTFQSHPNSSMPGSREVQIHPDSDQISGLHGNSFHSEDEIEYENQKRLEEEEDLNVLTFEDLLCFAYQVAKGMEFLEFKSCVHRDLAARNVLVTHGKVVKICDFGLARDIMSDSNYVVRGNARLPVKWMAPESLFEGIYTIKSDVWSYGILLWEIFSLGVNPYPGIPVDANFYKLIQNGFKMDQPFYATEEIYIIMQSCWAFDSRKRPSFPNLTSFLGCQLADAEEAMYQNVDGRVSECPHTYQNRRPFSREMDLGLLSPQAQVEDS
Procedure: The compounds to be tested are then diluted in culture medium (without FCS, with 0.1% bovine serum albumin) and added to the cells. (Controls comprise medium without test compounds). After two hours' incubation at 37° C., recombinant VEGF is added; the final VEGF concentration is 20 ng/ml). After a further five minutes incubation at 37° C., the cells are washed twice with ice-cold PBS (phosphate-buffered saline) and immediately lysed in 100 μl lysis buffer per well. The lysates are then centrifuged to remove the cell nuclei, and the protein concentrations of the supernatants are determined using a commercial protein assay (BIORAD). The lysates can then either be immediately used or, if necessary, stored at −20° C. A sandwich ELISA is carried out to measure the VEGF-R2 phosphorylation: a monoclonal antibody to VEGF-R2 (for example Mab 1495.12.14; ProQinase, Freiburg, Germany) is immobilized on black ELISA plates (OptiPlate™ HTRF-96 from Packard). The plates are then washed and the remaining free protein-binding sites are saturated with 3% TopBlock® (Juro, Cat. # TB232010) in phosphate buffered saline with Tween 20® (polyoxyethylen(20)-sorbitane monolaurate, ICI/Uniquema) (PBST). The cell lysates (20 μg protein per well) are then incubated in these plates overnight at 4° C. together with an antiphosphotyrosine antibody coupled with alkaline phosphatase (PY20:AP from Zymed). […] The luminescence is measured in a Packard Top Count Microplate Scintillation Counter. The difference between the signal of the positive control (stimulated with VEGF) and that of the negative control (not stimulated with VEGF) corresponds to VEGF-induced VEGF-R2 phosphorylation (=100%). The activity of the tested substances is calculated as percent inhibition of VEGF-induced VEGF-R2 phosphorylation, wherein the concentration of substance that induces half the maximum inhibition is defined as the IC50 (inhibitory dose for 50% inhibition). […] Flt3 kinase inhibition is determined as follows: The baculovirus donor vector pFbacG01 (GIBCO) is used to generate a recombinant baculovirus expressing the amino acid region amino acids 563-993 of the cytoplasmic kinase domain of human Flt-3. The coding sequence for the cytoplasmic domain of Flt-3 is amplified by PCR from human c-DNA libraries (Clontech). The amplified DNA fragments and the pFbacG01 vector are made compatible for ligation by digestion with BamH1 and HindIII. Ligation of these DNA fragments results in the baculovirus donor plasmid Flt-3(1.1). The production of the viruses, the expression of proteins in Sf9 cells and the purification of the GST-fused proteins are performed as follows: Production of virus: Transfer vector (pFbacG01-Flt-3) containing the Flt-3 kinase domain is transfected into the DH10Bac cell line (GIBCO) and the transfected cells are plated on selective agar plates. Colonies without insertion of the fusion sequence into the viral genome (carried by the bacteria) are blue. Single white colonies are picked and viral DNA (bacmid) is isolated from the bacteria by standard plasmid purification procedures. Sf9 or Sf21 cells (American Type Culture Collection) are then transfected in flasks with the viral DNA using Cellfectin reagent. Determination of small scale protein expression in Sf9 cells: Virus containing media is collected from the transfected cell culture and used for infection to increase its titre. Virus containing media obtained after two rounds of infection is used for large-scale protein expression. For large-scale protein expression 100 cm^2 round tissue culture plates are seeded with 5×10^7 cells/plate and infected with 1 mL of virus-containing media (approx. 5 MOIs). After 3 days the cells are scraped off the plate and centrifuged at 500 rpm for 5 min. Cell pellets from 10-20, 100 cm^2 plates, are resuspended in 50 mL of ice-cold lysis buffer (25 mMTris-HCl, pH 7.5, 2 mM EDTA, 1% NP-40, 1 mM DTT, 1 mM PMSF). The cells are stirred on ice for 15 min and then centrifuged at 5000 rpms for 20 min. […]

Chain of c-Src kinase (P12931 whole entry): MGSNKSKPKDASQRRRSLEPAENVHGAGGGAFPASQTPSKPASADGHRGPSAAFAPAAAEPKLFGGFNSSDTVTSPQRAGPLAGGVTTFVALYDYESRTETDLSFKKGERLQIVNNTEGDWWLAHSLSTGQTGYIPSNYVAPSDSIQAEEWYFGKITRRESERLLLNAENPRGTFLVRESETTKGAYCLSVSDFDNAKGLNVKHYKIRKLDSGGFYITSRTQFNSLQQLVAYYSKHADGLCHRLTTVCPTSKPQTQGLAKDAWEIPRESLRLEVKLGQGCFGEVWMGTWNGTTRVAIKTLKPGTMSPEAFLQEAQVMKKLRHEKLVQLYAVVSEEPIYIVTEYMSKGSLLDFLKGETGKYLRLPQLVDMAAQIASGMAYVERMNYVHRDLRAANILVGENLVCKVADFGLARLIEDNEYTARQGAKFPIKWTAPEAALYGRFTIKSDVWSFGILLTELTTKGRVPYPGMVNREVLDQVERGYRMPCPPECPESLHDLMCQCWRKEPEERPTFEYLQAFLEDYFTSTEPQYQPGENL

IC50 (c-Src kinase) | SMILES | also measured
< 10 µM | CN1CCN(c2ccc(-c3cnn4c(N)c(-c5ccccc5)cnc34)cc2)CC1 [Example 7, 3-[4-(4-Methyl-piperazin-1-yl)-phenyl]-6-phenyl-pyrazolo[1,5-a]pyrimidin-7-ylamine] | 
< 10 µM | COc1ccccc1-c1cnc2c(-c3ccc(N4CCN(C)CC4)cc3)cnn2c1N [Example 27, 6-(2-Methoxy-phenyl)-3-[4-(4-methyl-piperazin-1-yl)-phenyl]-pyrazolo[1,5-a]pyrimidin-7-ylamine] | 

Second part, the compound before the results:

SMILES | IC50 (c-Src kinase) | also measured
Nc1c(-c2c(Cl)cccc2Cl)cnc2c(-c3ccccc3)cnn12 [Example 16, 6-(2,6-Dichloro-phenyl)-3-phenyl-pyrazolo[1,5-a]pyrimidin-7-ylamine] |  | IC50 [1]: < 10 µM
CN1CCN(c2ccc(-c3cnn4c(N)c(-c5csc6ccccc56)cnc34)cc2)CC1 [Example 19, 6-Benzo[b]thiophen-3-yl-3-[4-(4-methyl-piperazin-1-yl)-phenyl]-pyrazolo[1,5-a]pyrimidin-7-ylamine] | < 10 µM | IC50 (c-Abl kinase): < 10 µM
CN1CCN(c2cccc(-c3cnn4c(N)c(-c5ccsc5)cnc34)c2)CC1 [Example 49, 3-[3-(4-Methyl-piperazin-1-yl)-phenyl]-6-thiophen-3-yl-pyrazolo[1,5-a]pyrimidin-7-ylamine] |  | IC50 (human Flt-3): < 10 µM
